One data set relates to MDA-MB-231 cells. In words: Growth inhibitory effect of NEK10 siRNA on cancer cells (methylene blue assay). It is filed as cell-based. The note with it: MDA-MB-231 breast cancer cells; 72 hours after siRNA transfection; absorbance at 660 nm; control siRNA treatment group of first experiment = 100. The protocol: NEK10 siRNA #1 and NEK10 siRNA #2 were confirmed to have growth inhibitory effects on cancer cells. Namely, a study was conducted by methylene blue assay to determine whether cell growth is inhibited by knocking down NEK10 variant gene by transfecting the cells with NEK10 siRNA #1 and NEK10 siRNA #2.
MDA-MB-231 cells were transfected with each siRNA in the same manner as previously described (Confirmation of Expression Inhibitory Effect on NEK10 Variant mRNA) followed by culturing for 72 hours after transfection. After culturing, the medium was removed followed by the addition of 1000 μL of methanol and allowing to stand for 2 minutes at room temperature to fix the cells. After removing the methanol, 1000 μL of dye solution (0.05% methylene blue solution) were added followed by dyeing for 30 minutes. After washing three times with 4 mL of distilled water, 2 mL of a 3% HCl solution were added followed by measurement of the absorbance of methylene blue at 660 nm using a microplate reader (BioRad).
The experiment was conducted in triplicate and the same experiment was repeated three times. The average triplicate value of the control siRNA treatment group of the first experiment was used as a control, the cell growth rates (%) were calculated according to the following Equation (5) using the average triplicate values of the siRNA treatment group of each experiment. […]

In another data set the test system is NEK10 variant mRNA. Nature of the data set: Expression inhibitory effect on NEK10 variant mRNA (real-time PCR using SYBR Green after siRNA transfection). It is filed as cell-based, human. The note with it: breast cancer cell line MDA-MB-231; siRNA (20 nM) with Lipofectamine RNAiMAX; 72 hours culture after transfection; first control siRNA treatment group = 100. From the text: After carrying out siRNA treatment by transfecting cells with siRNA consisting of the combination of sense RNA consisting of the base sequence represented by SEQ ID NO: 2 and antisense RNA consisting of the base sequence represented by SEQ ID NO: 3 (to be referred to as NEK10 siRNA #1) and siRNA consisting of the combination of sense RNA consisting of the base sequence represented by SEQ ID NO: 4 and antisense RNA consisting of the base sequence represented by SEQ ID NO: 5 (to be referred to as NEK10 siRNA #2), NEK10 variant mRNA was measured by real-time PCR using SYBR™ Green to study the knockdown effects on NEK10 variant mRNA.
Breast cancer cell line MDA-MB-231, which was confirmed to express NEK10 variant mRNA in Example 1, was transfected with control siRNA, NEK10 siRNA #1 or NEK10 siRNA #2, and NEK10 variant mRNA following siRNA treatment was measured by real-time PCR using SYBR™ Green to study the knockdown effects on NEK10 variant mRNA of each siRNA. The control siRNA was purchased from Invitrogen, and siRNA synthesized by Invitrogen was used for NEK10 siRNA #1 and NEK10 siRNA #2. […]
Using 500 ng of the purified RNA, cDNA was prepared in the same manner as Reference Example 1 using the reverse transcriptase Superscript III (Invitrogen). Ct values were measured in the same manner as Reference Example 1 using 1 μL of the resulting cDNA as template. […]

Take “NEK10 siRNA #1: siRNA of sense RNA SEQ ID NO: 2 (5'-GAAAUCCUGUCAGAUGAUAACUUCA-3') and antisense RNA SEQ ID NO: 3 (antisense UGAAGUUAUCAUCUGACAGGAUUUC; RNA, backbone not given here)”: the cell growth rate in the data set on MDA-MB-231 cells stood at 34±14%. Further, in the data set on NEK10 variant mRNA, the “percentage of NEK10 mRNA versus the control” value is reported as 11±0.5%.
On the same counts, the results for “NEK10 siRNA #2: siRNA of sense RNA SEQ ID NO: 4 (5'-UCUGCCUUGUUUGUUCACCACUAUU-3') and antisense RNA SEQ ID NO: 5 (antisense AAUAGUGGUGAACAAACAAGGCAGA; RNA, backbone not given here)” are 58±17% and 86±7.4%.

The record behind these values is patent US20150064710A1, “METHOD FOR INHIBITING CELL GROWTH, NUCLEIC ACID MOLECULE HAVING RNA INTERFERENCE EFFECT ON NEK10 VARIANT GENE, AND ANTICANCER AGENT” (Nippon Kayaku Kabushiki Kaisha, priority 2011, published 2015).
